Assay results reported in patent US9833497B2, “Human originated EGF domain proteins and use of the same” (CHENGDU SOURCEBIO LIMITED-LIABILITY COMPANY, priority 2013, dated 2017).

What was measured:
Assay type in all cases: cell-based
Proteus vulgaris = test: MIC against Gram-negative bacteria: Proteus vulgaris; conditions: 5×10^5 CFU/mL
Method in brief: (§1)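 First, colonies from LB agar were grown in LB at 37° C, 185 rpm, to McFarland turbidity 0.5, then centrifuged and resuspended in fresh LB. Next, wells received 5×10^5 CFU/mL bacteria plus two-fold serially diluted EGF domain protein (triplicate). Finally, plates were shaken at 37° C and the no-growth concentration taken as MIC.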

Klebsiella pneumonia = test: MIC against Gram-negative bacteria: Klebsiella pneumonia; conditions: 5×10^5 CFU/mL
Method in brief: as §1

E. coli BL21 = test: MIC against Gram-negative bacteria: E. coli BL21; conditions: 5×10^5 CFU/mL
Method in brief: as §1

Enterobacter cloacae = test: MIC against Gram-negative bacteria: Enterobacter cloacae; conditions: 5×10^5 CFU/mL
Method in brief: as §1

Proteus mirabilis = test: MIC against Gram-negative bacteria: Proteus mirabilis; conditions: 5×10^5 CFU/mL
Method in brief: as §1

E. coli DH5α = test: Antibacterial activity: MIC and growth curve against E. coli DH5α in 96-well plate; conditions: minimal inhibitory concentration against E. coli DH5α; 96-well plate, 5×10^5 CFU/mL, 37° C., judged after 8 h
Method in brief: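 Log-phase DH5α (OD600 about 0.5, 37° C, 185 rpm in LB) was pelleted, resuspended in fresh LB and seeded at 5×10^5 CFU/mL with recombinant protein at 50, 25 and 12.5 μg/mL (two-fold series), in triplicate. Plates were shaken at 175 rpm, 37° C, and OD600 was read every 30 min. MIC was the lowest concentration with no growth.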

Citrobacter diversus = test: MIC against Gram-negative bacteria: Citrobacter diversus; conditions: 5×10^5 CFU/mL
Method in brief: as §1

Pseudomonas aeruginosa = test: MIC against Gram-negative bacteria: Pseudomonas aeruginosa; conditions: 5×10^5 CFU/mL
Method in brief: as §1

Aeromonas hydrophila = test: MIC against Gram-negative bacteria: Aeromonas hydrophila; conditions: 5×10^5 CFU/mL
Method in brief: as §1

Moraxella catarrhalis = test: MIC against Gram-negative bacteria: Moraxella catarrhalis; conditions: 5×10^5 CFU/mL
Method in brief: as §1

Serratia marcescens = test: MIC against Gram-negative bacteria: Serratia marcescens; conditions: 5×10^5 CFU/mL
Method in brief: as §1

[1] = Proteus vulgaris, 96-well plate, 37° C., 10 h
[2] = Klebsiella pneumonia, 96-well plate, 37° C., 10 h
[3] = E. coli BL21, 96-well plate, 37° C., 10 h
[4] = Enterobacter cloacae, 96-well plate, 37° C., 10 h
[5] = Proteus mirabilis, 96-well plate, 37° C., 10 h
[6] = Citrobacter diversus, 96-well plate, 37° C., 10 h
[7] = Pseudomonas aeruginosa, 96-well plate, 37° C., 10 h
[8] = Aeromonas hydrophila, 96-well plate, 37° C., 10 h
[9] = Moraxella catarrhalis, 96-well plate, 37° C., 10 h
[10] = Serratia marcescens, 96-well plate, 37° C., 10 h
[11] = E. coli BL21, 10 h cultivation at 37° C.

Substance: PRT113 (DLDECASRSKSGEEDPQPQCQHLCHNYVGGYFCSCRPGYELQEDRHSCQ; listed as Homo sapiens)
- MIC (μg/mL) P. vulgaris (Proteus vulgaris; [1]): 12.5 µg/mL
- MIC (μg/mL) K. pneumonia (Klebsiella pneumonia; [2]): 12.5 µg/mL
- MIC (μg/mL) E. coli BL21 (E. coli BL21; [3]): 50 µg/mL
- MIC (μg/mL) E. cloacae (Enterobacter cloacae; [4]): 25 µg/mL
- MIC (μg/mL) P. mirabilis (Proteus mirabilis; [5]): 12.5 µg/mL
- MIC (E. coli DH5α): 12.5 µg/mL
- MIC (μg/mL) C. diversus (Citrobacter diversus; [6]): 12.5 µg/mL
- MIC (μg/mL) P. aeruginosa (Pseudomonas aeruginosa; [7]): 25 µg/mL
- MIC (μg/mL) A. hydrophila (Aeromonas hydrophila; [8]): 50 µg/mL
- MIC (μg/mL) M. catarrhalis (Moraxella catarrhalis; [9]): 50 µg/mL
- MIC (μg/mL) S. marcescens (Serratia marcescens; [10]): 100 µg/mL

Substance: PRT10 (NCSAQCHNHGVCNHKQECHCHAGWAPPHCA; listed as Homo sapiens)
- MIC (μg/mL) P. vulgaris (Proteus vulgaris; [1]): 25 µg/mL
- MIC (μg/mL) K. pneumonia (Klebsiella pneumonia; [2]): 50 µg/mL
- MIC (μg/mL) E. coli BL21 (E. coli BL21; [3]): 50 µg/mL
- MIC (μg/mL) E. cloacae (Enterobacter cloacae; [4]): 12.5 µg/mL
- MIC (μg/mL) P. mirabilis (Proteus mirabilis; [5]): 12.5 µg/mL
- MIC (E. coli DH5α): 25 µg/mL
- MIC (μg/mL) C. diversus (Citrobacter diversus; [6]): 25 µg/mL
- MIC (μg/mL) P. aeruginosa (Pseudomonas aeruginosa; [7]): 12.5 µg/mL
- MIC (μg/mL) A. hydrophila (Aeromonas hydrophila; [8]): 50 µg/mL
- MIC (μg/mL) M. catarrhalis (Moraxella catarrhalis; [9]): 12.5 µg/mL
- MIC (μg/mL) S. marcescens (Serratia marcescens; [10]): 12.5 µg/mL

Substance: PRT1395 (DCPRNCHGNGECVSGVCHCFPGFLGADCA; listed as Homo sapiens)
- MIC against P. vulgaris (Proteus vulgaris; Proteus vulgaris, 10 h cultivation at 37° C.): 12.5 µg/mL
- MIC against K. pneumonia (Klebsiella pneumonia; Klebsiella pneumonia, 10 h cultivation at 37° C.): 25 µg/mL
- MIC against E. coli BL21 (E. coli BL21; [11]): 25 µg/mL
- MIC against E. cloacae (Enterobacter cloacae; Enterobacter cloacae, 10 h cultivation at 37° C.): 12.5 µg/mL
- MIC against P. mirabilis (Proteus mirabilis; Proteus mirabilis, 10 h cultivation at 37° C.): 12.5 µg/mL
- MIC (E. coli DH5α): 12.5 µg/mL
- MIC against C. diversus (Citrobacter diversus; Citrobacter diversus, 10 h cultivation at 37° C.): 12.5 µg/mL
- MIC against P. aeruginosa (Pseudomonas aeruginosa; Pseudomonas aeruginosa, 10 h cultivation at 37° C.): 12.5 µg/mL
- MIC against A. hydrophila (Aeromonas hydrophila; Aeromonas hydrophila, 10 h cultivation at 37° C.): 100 µg/mL
- MIC against M. catarrhalis (Moraxella catarrhalis; Moraxella catarrhalis, 10 h cultivation at 37° C.): 12.5 µg/mL
- MIC against S. marcescens (Serratia marcescens; Serratia marcescens, 10 h cultivation at 37° C.): 25 µg/mL

Substance: PRT513 (CECDPYGSLPVPCDPVTGFCTCRPGATGRKCDGCKHWHAREGWECVF; listed as Homo sapiens)
- MIC against P. vulgaris (Proteus vulgaris; 96-well plate, 37° C., 10 h): 12.5 µg/mL
- MIC against K. pneumonia (Klebsiella pneumonia; 96-well plate, 37° C., 10 h): 12.5 µg/mL
- MIC against E. coli BL21 (E. coli BL21; 96-well plate, 37° C., 10 h): 12.5 µg/mL
- MIC against E. cloacae (Enterobacter cloacae; 96-well plate, 37° C., 10 h): 25 µg/mL
- MIC against P. mirabilis (Proteus mirabilis; 96-well plate, 37° C., 10 h): 50 µg/mL
- MIC (E. coli DH5α): 50 µg/mL
- MIC against C. diversus (Citrobacter diversus; 96-well plate, 37° C., 10 h): 25 µg/mL
- MIC against P. aeruginosa (Pseudomonas aeruginosa; 96-well plate, 37° C., 10 h): 50 µg/mL
- MIC against A. hydrophila (Aeromonas hydrophila; 96-well plate, 37° C., 10 h): 50 µg/mL
- MIC against M. catarrhalis (Moraxella catarrhalis; 96-well plate, 37° C., 10 h): 12.5 µg/mL
- MIC against S. marcescens (Serratia marcescens; 96-well plate, 37° C., 10 h): 12.5 µg/mL

Substance: PRT157 (VADPCASNPCHHGNCSSSSSSSSDGYLCICNEGYEGPNCE; listed as Homo sapiens)
- MIC (μg/mL) P. vulgaris (Proteus vulgaris; P. vulgaris, 10 h cultivation at 37° C.): 12.5 µg/mL
- MIC (μg/mL) K. pneumonia (Klebsiella pneumonia; K. pneumonia, 10 h cultivation at 37° C.): 12.5 µg/mL
- MIC (μg/mL) E. coli BL21 (E. coli BL21; [11]): 50 µg/mL
- MIC (μg/mL) E. cloacae (Enterobacter cloacae; E. cloacae, 10 h cultivation at 37° C.): 25 µg/mL
- MIC (μg/mL) P. mirabilis (Proteus mirabilis; P. mirabilis, 10 h cultivation at 37° C.): 12.5 µg/mL
- MIC (E. coli DH5α): 12.5 µg/mL
- MIC (μg/mL) C. diversus (Citrobacter diversus; C. diversus, 10 h cultivation at 37° C.): 12.5 µg/mL
- MIC (μg/mL) P. aeruginosa (Pseudomonas aeruginosa; P. aeruginosa, 10 h cultivation at 37° C.): 25 µg/mL
- MIC (μg/mL) A. hydrophila (Aeromonas hydrophila; A. hydrophila, 10 h cultivation at 37° C.): 12.5 µg/mL
- MIC (μg/mL) M. catarrhalis (Moraxella catarrhalis; M. catarrhalis, 10 h cultivation at 37° C.): 12.5 µg/mL
- MIC (μg/mL) S. marcescens (Serratia marcescens; S. marcescens, 10 h cultivation at 37° C.): 12.5 µg/mL
